Laboratory results as given in ChEMBL document CHEMBL6127068, “Discovery of novel nitrofuran PROTAC-like compounds as dual inhibitors and degraders targeting STING” (Eur J Med Chem, 2024).
Activity calls are given as the source filed them. The calls are words filed in the database; no cut-off is given here.

Tests used:
[1] = biological target: T1, Stimulator of interferon genes protein (Mus musculus) (UniProt Q3TBT3); assay: Inhibition of STING in mouse RAW264.7 cells assessed as reduction in DMXAA-induced IFN-beta mRNA expression at 5 to 20 uM pretreated for 1 hr followed by stimulation with DMXAA for 24 hrs by qRT-CPR analysis; assay type: cell-based; conditions: dose 5-20 µM, time 25.0 hrs
T1 sequence (whole entry): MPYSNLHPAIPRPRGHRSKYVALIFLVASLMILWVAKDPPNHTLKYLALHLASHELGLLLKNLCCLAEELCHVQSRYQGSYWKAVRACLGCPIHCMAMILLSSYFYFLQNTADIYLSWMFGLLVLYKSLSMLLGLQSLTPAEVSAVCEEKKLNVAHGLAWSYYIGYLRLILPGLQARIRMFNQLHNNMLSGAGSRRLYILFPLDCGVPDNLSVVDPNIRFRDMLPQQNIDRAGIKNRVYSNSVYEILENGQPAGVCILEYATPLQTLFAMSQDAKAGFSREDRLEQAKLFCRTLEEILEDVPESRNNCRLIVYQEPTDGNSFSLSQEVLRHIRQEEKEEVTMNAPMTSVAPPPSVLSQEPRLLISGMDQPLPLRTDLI

[2] = biological target: T2, Protein cereblon/Stimulator of interferon genes protein (Homo sapiens, UniProt Q96SW2+Q86WV6); assay: PROTAC activity at CRBN/STING in human THP-1 cells assessed as induction of STING degradation at 10 uM measured after 9 hrs by western blot analysis; assay type: cell-based
Target sequence in this assay (Q86WV6 whole entry, looked up): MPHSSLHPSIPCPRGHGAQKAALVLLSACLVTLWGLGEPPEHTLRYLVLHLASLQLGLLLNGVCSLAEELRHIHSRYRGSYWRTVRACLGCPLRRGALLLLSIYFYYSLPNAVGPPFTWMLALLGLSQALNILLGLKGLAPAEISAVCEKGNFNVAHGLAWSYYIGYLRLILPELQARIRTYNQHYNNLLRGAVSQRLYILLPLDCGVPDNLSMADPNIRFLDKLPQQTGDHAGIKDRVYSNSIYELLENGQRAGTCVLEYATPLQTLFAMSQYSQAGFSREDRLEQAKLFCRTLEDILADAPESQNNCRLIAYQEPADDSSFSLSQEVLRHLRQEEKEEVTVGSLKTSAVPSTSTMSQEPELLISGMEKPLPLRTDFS
Target sequence in this assay (Q96SW2 whole entry, looked up): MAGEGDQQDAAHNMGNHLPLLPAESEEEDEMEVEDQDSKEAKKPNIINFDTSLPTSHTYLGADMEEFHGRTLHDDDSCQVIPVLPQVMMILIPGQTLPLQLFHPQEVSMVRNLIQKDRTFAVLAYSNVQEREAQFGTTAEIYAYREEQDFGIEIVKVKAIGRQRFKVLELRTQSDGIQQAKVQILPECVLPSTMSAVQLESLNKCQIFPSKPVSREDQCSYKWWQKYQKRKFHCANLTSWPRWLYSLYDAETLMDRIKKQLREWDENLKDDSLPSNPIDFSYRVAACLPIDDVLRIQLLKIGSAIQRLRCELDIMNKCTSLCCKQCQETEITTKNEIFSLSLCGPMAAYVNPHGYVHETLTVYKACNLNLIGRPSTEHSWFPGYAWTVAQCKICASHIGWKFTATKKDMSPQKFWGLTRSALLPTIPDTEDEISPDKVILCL

[3] = biological target: T3, Protein cereblon/Stimulator of interferon genes protein (Mus musculus) (UniProt Q3TBT3+Q8C7D2); assay: In vivo inhibition of STING signaling pathway in C57BL/6J mouse assessed as inhibition of cisplatin-induced ISG15 mRNA expression in kidney at 25 to 50 mg/kg by qPCR analysis; assay type: functional, organism-based; conditions: dose 25-50 mg/kg
T3 sequence (Q8C7D2 whole entry, looked up, one chain of several): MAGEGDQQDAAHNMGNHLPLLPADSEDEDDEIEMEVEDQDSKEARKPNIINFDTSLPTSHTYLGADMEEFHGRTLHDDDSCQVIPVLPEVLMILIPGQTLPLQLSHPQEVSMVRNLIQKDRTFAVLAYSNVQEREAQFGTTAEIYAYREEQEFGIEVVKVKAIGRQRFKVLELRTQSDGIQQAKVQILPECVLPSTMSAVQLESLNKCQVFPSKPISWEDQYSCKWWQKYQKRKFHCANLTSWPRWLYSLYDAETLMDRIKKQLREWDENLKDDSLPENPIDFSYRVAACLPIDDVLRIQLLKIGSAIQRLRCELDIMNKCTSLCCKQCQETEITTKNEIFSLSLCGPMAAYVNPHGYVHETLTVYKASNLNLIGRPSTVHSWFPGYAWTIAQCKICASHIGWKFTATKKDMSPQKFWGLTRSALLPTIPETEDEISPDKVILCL

[4] = biological target: T2, Protein cereblon/Stimulator of interferon genes protein; assay: PROTAC activity at CRBN/STING in human THP-1 cells assessed as induction of STING degradation at 10 uM incubated for 24 hrs by western blot analysis; assay type: cell-based
Target sequence in this assay (Q86WV6 whole entry, looked up): as the sequence (Q86WV6 whole entry, looked up) above
Target sequence in this assay (Q96SW2 whole entry, looked up): as the sequence (Q96SW2 whole entry, looked up) above

[5] = biological target: T1, Stimulator of interferon genes protein (Mus musculus); assay: Inhibition of STING in mouse RAW264.7 cells assessed as reduction in DMXAA-induced TNF-alpha mRNA expression at 5 to 20 uM pretreated for 1 hr followed by stimulation with DMXAA for 24 hrs by qRT-CPR analysis; assay type: cell-based; conditions: dose 5-20 µM, time 25.0 hrs
HEK-293T = assay: Cytotoxicity against HEK293T cells assessed as effect on cell viability at <10 uM incubated for 48 hrs by MTT assay; assay type: toxicity, cell-based; conditions: human
Mus musculus [6] = assay: Anti-inflammatory activity against C57BL/6J mouse assessed as inhibition of cisplatin-induced hepatic impairment by measuring restoration of ALT activity at 25 to 50 mg/kg; assay type: functional, organism-based; conditions: dose 25-50 mg/kg
Mus musculus [7] = assay: Anti-inflammatory activity against cisplatin-induced acute kidney injury C57BL/6J mouse model assessed as animal survival rate at 25 to 50 mg/kg measured at 72 hrs post-cisplatin administration (reference value: 66.7%); assay type: functional; conditions: dose 25-50 mg/kg
[8] = biological target: T1, Stimulator of interferon genes protein (Mus musculus); assay: Inhibition of STING in mouse RAW264.7 cells assessed as reduction in DMXAA-induced CXCL10 mRNA expression at 5 to 20 uM pretreated for 1 hr followed by stimulation with DMXAA for 24 hrs by qRT-CPR analysis; assay type: cell-based; conditions: dose 5-20 µM, time 25.0 hrs
[9] = biological target: T3, Protein cereblon/Stimulator of interferon genes protein (Mus musculus); assay: In vivo inhibition of STING signaling pathway in C57BL/6J mouse assessed as inhibition of cisplatin-induced IL-6 mRNA expression in kidney at 25 to 50 mg/kg by qPCR analysis; assay type: functional, organism-based; conditions: dose 25-50 mg/kg
HUVEC = assay: Cytotoxicity against HUVEC assessed as effect on cell viability at <10 uM incubated for 48 hrs by MTT assay; assay type: toxicity, cell-based; conditions: human
[10] = biological target: T3, Protein cereblon/Stimulator of interferon genes protein (Mus musculus); assay: In vivo inhibition of STING signaling pathway in C57BL/6J mouse assessed as inhibition of cisplatin-induced IL-1 beta mRNA expression in kidney at 25 to 50 mg/kg by qPCR analysis; assay type: functional, organism-based; conditions: dose 25-50 mg/kg
[11] = Toxicity against cisplatin-induced acute kidney injury C57BL/6J mouse model assessed as effect on heart morphology at 25 to 50 mg/kg by Hematoxylin-Eosin staining based microscopic analysis; assay type: organism-based; conditions: in vivo, dose 25-50 mg/kg
[12] = biological target: T2, Protein cereblon/Stimulator of interferon genes protein; assay: PROTAC activity at CRBN/STING in human THP-1 cells assessed as induction of STING degradation at 10 uM incubated for 24 hrs followed by replacement with fresh medium without compound and measured after 24 hrs by western bot analysis; assay type: cell-based
Target sequence in this assay (Q86WV6 whole entry, looked up): as the sequence (Q86WV6 whole entry, looked up) above
Target sequence in this assay (Q96SW2 whole entry, looked up): as the sequence (Q96SW2 whole entry, looked up) above

[13] = biological target: T2, Protein cereblon/Stimulator of interferon genes protein; assay: PROTAC activity at CRBN/STING in human THP-1 cells assessed as induction of STING degradation at 10 uM by western blot analysis; assay type: cell-based; conditions: time 3-36 hrs, TDE = time-dependent effect
Target sequence in this assay (Q86WV6 whole entry, looked up): as the sequence (Q86WV6 whole entry, looked up) above
Target sequence in this assay (Q96SW2 whole entry, looked up): as the sequence (Q96SW2 whole entry, looked up) above

[14] = biological target: Protein cereblon/Signal transducer and activator of transcription 3 (Homo sapiens) (UniProt P40763+Q96SW2); assay: PROTAC activity at CRBN/STAT3 in human THP-1 cells assessed as induction of STAT3 degradation at 2.5 to 40 uM incubated for 24 hrs by western blot analysis; assay type: cell-based; conditions: dose 2.5-40 µM
Chain of Protein cereblon/Signal transducer and activator of transcription 3 (Homo sapiens) (P40763 2-770 limits assumed): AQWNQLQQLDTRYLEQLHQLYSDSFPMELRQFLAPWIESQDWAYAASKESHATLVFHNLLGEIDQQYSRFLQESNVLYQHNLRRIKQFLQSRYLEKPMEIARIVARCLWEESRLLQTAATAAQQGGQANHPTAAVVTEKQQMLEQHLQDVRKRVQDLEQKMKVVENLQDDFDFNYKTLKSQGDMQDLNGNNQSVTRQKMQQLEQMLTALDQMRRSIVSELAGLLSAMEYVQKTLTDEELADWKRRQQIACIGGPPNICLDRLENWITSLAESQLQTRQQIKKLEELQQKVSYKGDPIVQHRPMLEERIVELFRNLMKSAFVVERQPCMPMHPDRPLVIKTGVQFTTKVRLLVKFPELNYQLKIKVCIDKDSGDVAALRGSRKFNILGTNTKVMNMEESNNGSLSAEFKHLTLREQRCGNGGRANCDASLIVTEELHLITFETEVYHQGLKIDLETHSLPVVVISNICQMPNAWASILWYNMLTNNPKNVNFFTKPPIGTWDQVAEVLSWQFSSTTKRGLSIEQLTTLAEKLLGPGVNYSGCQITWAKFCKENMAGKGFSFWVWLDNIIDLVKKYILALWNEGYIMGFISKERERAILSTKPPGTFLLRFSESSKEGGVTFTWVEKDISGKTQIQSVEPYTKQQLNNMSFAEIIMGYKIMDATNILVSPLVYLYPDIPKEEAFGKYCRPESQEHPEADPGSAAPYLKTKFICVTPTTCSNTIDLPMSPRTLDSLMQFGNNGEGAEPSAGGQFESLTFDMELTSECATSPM
Chain of Protein cereblon/Signal transducer and activator of transcription 3 (Homo sapiens) (Q96SW2 whole entry partner): as the sequence (Q96SW2 whole entry, looked up) above

Mus musculus [15] = assay: Anti-inflammatory activity against cisplatin-induced acute kidney injury C57BL/6J mouse model assessed as decrease in kidney damage at 25 to 50 mg/kg by Hematoxylin-Eosin staining based microscopic analysis; assay type: functional, organism-based; conditions: dose 25-50 mg/kg
[16] = biological target: T3, Protein cereblon/Stimulator of interferon genes protein (Mus musculus); assay: In vivo inhibition of STING signaling pathway in C57BL/6J mouse assessed as inhibition of cisplatin-induced IFN-beta mRNA expression in kidney at 25 to 50 mg/kg by qPCR analysis; assay type: functional, organism-based; conditions: dose 25-50 mg/kg
Mus musculus [17] = assay: Anti-inflammatory activity against C57BL/6J mouse assessed as inhibition of cisplatin-induced hepatic impairment by measuring restoration of gamma-GT activity at 25 to 50 mg/kg; assay type: functional, organism-based; conditions: dose 25-50 mg/kg
THP-1 [18] = assay: Effect on STING mRNA expression in human THP-1 cells at 10 uM incubated for 12 to 48 hrs by qRT-PCR analysis; assay type: functional, cell-based; conditions: time 12-48 hrs
[19] = biological target: T3, Protein cereblon/Stimulator of interferon genes protein (Mus musculus); assay: PROTAC activity at CRBN/STING in mouse RAW264.7 cells assessed as induction of STING degradation at 0.33 to 30 uM incubated for 24 hrs by western blot analysis; assay type: cell-based; conditions: dose 0.33-30 µM
[20] = Toxicity against cisplatin-induced acute kidney injury C57BL/6J mouse model assessed as decrease in body weight at 25 to 50 mg/kg; assay type: organism-based; conditions: in vivo, dose 25-50 mg/kg
Mus musculus [21] = assay: Anti-inflammatory activity against cisplatin-induced acute kidney injury C57BL/6J mouse model assessed as decrease in plasma creatinine level at 25 to 50 mg/kg; assay type: functional, organism-based; conditions: dose 25-50 mg/kg
[22] = Stability of the compound in human plasma assessed as parent compound remaining at 400 ug/ml measured after 24 hrs by HPLC analysis; assay type: ADME, cell-free; conditions: at 400 µg/mL, read-out: Stability
[23] = biological target: T2, Protein cereblon/Stimulator of interferon genes protein; assay: PROTAC activity at CRBN/STING in human THP-1 cells assessed as induction of STING degradation incubated for 24 hrs by western blot analysis; assay type: cell-based
Target sequence in this assay (Q96SW2 whole entry): as the sequence (Q96SW2 whole entry, looked up) above
Target sequence in this assay (Q86WV6 whole entry): as the sequence (Q86WV6 whole entry, looked up) above

THP-1 [24] = assay: PROTAC activity at CRBN/Akt in human THP-1 cells assessed as induction of Akt degradation at 2.5 to 40 uM incubated for 24 hrs by western blot analysis; assay type: cell-based; conditions: dose 2.5-40 µM

O=C1CCC(N2C(=O)c3cccc(OCc4cn(CCCCCC(=O)OCCc5ccc(NC(=O)c6ccc([N+](=O)[O-])o6)cc5)nn4)c3C2=O)C(=O)N1 (stereo unspecified)
inhibition [1]: Dose-Dependent Effect | Activity [2]: Active | inhibition [3]: Active | Activity [4]: 82% | inhibition [5]: Dose-Dependent Effect | Activity (HEK-293T): Non-Toxic | Activity (Mus musculus [6]): Active | Survival (Mus musculus [7]): 100% | inhibition [8]: Dose-Dependent Effect | inhibition [9]: Active | Activity (HUVEC): Non-Toxic | inhibition [10]: Active | Activity [11]: Non-Toxic | Activity [12]: inactive | Activity [13]: Tde | Activity [14]: inactive | Activity (Mus musculus [15]): Active | inhibition [16]: Active | Activity (Mus musculus [17]): Active | Activity (THP-1 [18]): inactive | Activity [19]: inactive | Activity [20]: Toxic | Activity (Mus musculus [21]): Active | remaining at 24 h, 400 ug/ml [22]: ~66% | DC50 [23]: 2.58 µM | Activity (THP-1 [24]): inactive
